Measured values reported in US20230190694A1, “COMPOSITIONS FOR AND METHODS OF PRECISION CANCER TREATMENT” (priority 2021, published 2023).

Assays:
[1] = Solubility in water; format: physicochemical
[2] = test system: mutated and amplified genes (ctDNA) in blood; test: Molecular response by repeated Guardant 360 tests (ctDNA in blood); format: in vivo, human; conditions: individual patients; genes named in the cited cell or block
Protocol: Molecular response was determined by repeated Guardant 360 tests. […] Herein, blood samples were collected from patients and provided to Guardant for panel testing wherein a “panel” was defined as five or more ctDNA genes or gene mutation variants tested on the same day on the same member by the same rendering provider (i.e., Guardant).

[3] = test system: Uncommon Cancers (Neoplastic Disorders); test: Patients with uncommon cancers treated with AS2-1 in combination with other drugs: response and survival; format: in vivo, human; conditions: GIST patient, before the combination of AS and sunitinib
Protocol: Patients diagnosed with 34 types of terminal cancer were treated with Antineoplaston AS2-1 (AS) therapy to reduce and/or abolish tumors and other signs of cancer and reduce and/or abolish expression of cancer-causing genes. In brief, patients admitted for treatment herein were diagnosed with terminal, Stage IV, cancers of varying types with multiple metastases and had failed standard-of-care regimens, except for a small number of patients who were treatment naive, but were not candidates for standard treatment because of very advanced disease and less than 6 months life expectancy. The estimated survival for these patients was from less than one to less than 6 months. The patients had radiological evidence of advanced metastatic cancer performed within 4 weeks from treatment start and genomic analysis, usually ordered at admission, including Guardant 360 blood test and/or Foundation One and/or Tempus blood or tissue test and/or SEMA4 tissue test. […]
At baseline, history taking, physical examination, necessary laboratory, genomic and radiological evaluations were performed. Two largest perpendicular diameters of the radiologically significant lesions were measured including MRI contrast-enhanced lesions in the brain and spinal cord. […] Mixed response was determined when there was a CR or PR of some lesions and PD of the other lesions. […]

SMILES: NC(=O)C(CCC(=O)[O-])NC(=O)Cc1ccccc1.[Na+] (stereo not shown) [Iso-PG, phenylacetylisoglutaminate sodium]
- solubility in water [1]: soluble in water

SMILES: C=CC(=O)Nc1cc(Nc2nccc(-c3cn(C)c4ccccc34)n2)c(OC)cc1N(C)CCN(C)C [osimertinib]
- Genes affected by AS / molecular response: status of mutated or amplified genes in follow-up blood genomic analysis [2]: elimination of the two EGFR mutations

SMILES: CCc1cc2c(cc1N1CCC(N3CCOCC3)CC1)C(C)(C)c1[nH]c3cc(C#N)ccc3c1C2=O [alectinib]
- Genes affected by AS / molecular response: status of mutated or amplified genes in follow-up blood genomic analysis [2]: Elimination of the ALK fusion

SMILES: Cc1ccc(NC(=O)c2ccc(CN3CCN(C)CC3)cc2)cc1Nc1nccc(-c2cccnc2)n1 [imatinib]
- response to prior targeted therapy [3]: failed to respond
